Experimental data as given in US7326538B2, “Binding proteins as biosensors” (Becton Dickinson and Company, priority 2002, dated 2008).

Key:
[1] = SPR glucose detection on immobilized GGBP sensor surfaces (BIACORE); type: binding; details: for SPR Signal, Buffer: running buffer injection; for glucose detection by SPR using thiol-coupled mutants (FIG. 8): 0.1 mM and 1 mM glucose, thiol-coupled surfaces
Description: Proteins were immobilized onto a carboxymethyldextran (CM5) sensor surface (BIACORE) by thiol coupling using standard thiol coupling chemistry with a flow rate of 5 μl/min in 10 mM HEPES pH 7.4, 150 mM NaCl, 0.05% BIACORE Surfactant P20 (BIAcore) (HBS-P) running buffer. The sensor surface was activated with a 2 minute pulse of […] (EDC/NHS) followed by a 4 min pulse of 80 mM 2-(2-pyridinyldithio) ethaneamine (PDEA), 0.1 M sodium borate pH 8.5, E149C GGBP (1.8 mg/ml) was injected at a 1:50 dilution in 10 mM sodium acetate pH 4.5 for various times. Carbonic anhydrase 11 (5 mg/ml) was injected at 1:10 dilution in 10 mM sodium acetate pH 4.5 for 20 minutes. G74C GGBP (2.6 mg/ml) was injected at 1:50 dilution in 10 mM sodium acetate pH 4.5 for 12 minutes. A213C GGBP (0.6 mg/ml) was injected at 1:20 dilution in 10 mM sodium acetate pH 4.5 for 2 4 minutes. A 4 minute pulse of 50 mM cysteine, 1 M NaCl, 0.1 M sodium formate pH 4.3 was used to quench the reaction and remove non-specifically bound protein from the surface. Following immobilization, the protocol DESORB (0.5% SDS, 50 mM glycine pH 9.5) was run to remove protein aggregates from the system. Surfaces of 3000 RU (E149C GGBP), 4500 RU (carbonic anydrase), 2000 RU (A213C GGBP), and 4000 RU (G74C GGBP) were used for experiments.
Proteins were immobilized onto a Carboxymethyldextran (CM5) sensor surface (BIAcore) by amine coupling using standard amine coupling chemistry with a flow rate of 5 μl/min in HBS-P running buffer. The surface was activated with a 7 minute pulse of EDC/NHS. Proteins (WT GGBP, 2 mg/ml; E149C GGBP, 1.8 mg/ml) were injected at a 1:50 dilution in 10 mM sodium acetate pH 4.5 for 20 minutes. A pulse of 1 M ethanolamine pH 8.0 was injected to quench the reaction and remove nonspecifically bound protein. Surfaces of 4800 RU for E149C and 2400 RU for wild type GGBP were used for experiments.
Thiol coupling of E149C GGBP on C1 surfaces was carried out as follows. E149C GGBP was immobilized on a carboxymethyl (C1) chip using standard thiol coupling chemistry with a flow rate of 5 μl/min in HBS-P running buffer. The C1 surface was activated with a 4 min pulse of EDC/NHS followed by a 4 min pulse of 80 mM PDEA of 0.1 M sodium borate pH 8.5. E149C GGBP (1.8 mg/ml) was injected at a 1:2 dilution in 10 mM sodium acetate pH 4.5 for 50 minutes at a flow rate of 1 μl/min. A 7 minute pulse of 50 mM cysteine, 1M NaCl, 0.1 M sodium formate pH 4.3 was used to quench the reaction and remove non-specifically bound protein from the surface. A surface of 9000 RU was used for experiments.
Amine coupling of E149C GGBP on C1 surfaces. E149C GGBP was immobilized on a C1 chip using standard amine coupling chemistry with a flow rate of 5 μl/min in HBS-P running buffer. The surface was activated with a 7 minute pulse of EDC/NHS. E149C GGBP (1.8 mg/ml) was injected at a 1:2 dilution in 1 0 MM sodium acetate pH 4.5 for 50 minutes at a flow rate of 1 μl/min. A pulse of 1 M ethanolamine pH 8.0 was injected to quench the reaction and remove nonspecifically bound protein.
All glucose injections were performed at 25° C. in the appropriate running buffer for the specific experiment. Glucose injections were 10 μl at a flow rate of 10 μl/min (1 minute contact time). Injections of different glucose concentrations were repeated three times and alternated between the protein and blank surfaces. The protein surface was regenerated by washing of the flow channel with running buffer followed by a running buffer injection. Sensorgrams were either blank surface subtracted or were double referenced by first subtracting the glucose injection over a blank surface from the corresponding glucose injection on the protein surface. A buffer injection over the blank surface was then subtracted from a buffer injection over the protein surface. The final sensorgram was obtained by subtracting the normalized buffer injection from the normalized glucose injection. […]

[2] = SPR response of thiol coupled E149C GGBP to a panel of sugars; type: binding; details: sugars at 100 μM, 3000 RU thiol-coupled surface
Description: All glucose injections were performed at 25° C. in the appropriate running buffer for the specific experiment. Glucose injections were 10 μl at a flow rate of 10 μl/min (1 minute contact time). Injections of different glucose concentrations were repeated three times and alternated between the protein and blank surfaces. The protein surface was regenerated by washing of the flow channel with running buffer followed by a running buffer injection. Sensorgrams were either blank surface subtracted or were double referenced by first subtracting the glucose injection over a blank surface from the corresponding glucose injection on the protein surface. A buffer injection over the blank surface was then subtracted from a buffer injection over the protein surface. The final sensorgram was obtained by subtracting the normalized buffer injection from the normalized glucose injection.
FIG. 2 depicts the specificity of E149C mutated GGBP to bind glucose preferentially. The indicated sugars were injected at a concentration of 100 μM on a 3000 RU thiol-coupled E149C surface. Double referenced sensorgrams were averaged during the time frame corresponding between 10 and 50 seconds during the injection. Each injection was done in triplicate.

[3] = amine coupling, CM5 chip, 100 μM glucose
[4] = thiol coupling, CM5 chip, 100 μM glucose, blank subtracted or double referenced

WT GGBP H6: wild type E. coli Galactose/Glucose Binding Protein with histidine tag, non-thiol negative control [reference compound]
SPR Signal at Saturating Amounts of Glucose [1, 3]: 5.9 ± 2.3/ RU
SPR Signal, Buffer ([1]; amine coupling, CM5 chip): 2.9 ± 1.5 RU

E149C GGBP H6: E. coli GGBP with cysteine substituted for glutamic acid at position 149, C-terminal six-histidine tag
specificity to bind glucose preferentially over other sugars (FIG. 2) [2]: glucose binds more readily
glucose detection on C1 surface (FIG. 7) ([1]; 100 μM glucose, 2000 RU amine-coupled surface): does not result in glucose binding
glucose detection on C1 surface (FIG. 6) ([1]; 100 μM glucose, 9000 RU thiol-coupled protein surface): Glucose detection is evident
signal upon glucose binding, thiol-coupling in comparison to amino coupling or buffer only (FIG. 1) ([1]; 100 µM glucose, one minute injection): significantly enhanced signal
SPR Signal at Saturating Amounts of Glucose ([1]; amine coupling, C1 chip, 1 mM glucose): −4.9 ± 5.3/ RU
SPR Signal at Saturating Amounts of Glucose [1, 3]: 2.1 ± 5.5/ RU
SPR Signal, Buffer ([1]; amine coupling, C1 chip): 0.4 ± 3.1 RU
SPR Signal, Buffer ([1]; amine coupling, CM5 chip): 1.4 ± 3.1 RU
SPR Signal, Buffer ([1]; thiol coupling, C1 chip): 0.8 ± 1.5 RU
SPR Signal, Buffer ([1]; thiol coupling, CM5 chip): −0.5 ± 4.3 RU
SPR Signal, Buffer ([1]; thiol coupling, CM5 chip, denatured surface (neg control)): −1.4 ± 2.2 RU
SPR Signal, Buffer ([1]; thiol coupling, CM5 chip, refolded protein surface): −3.7 ± 1.5 RU
SPR Signal at Saturating Amounts of Glucose ([1]; thiol coupling, C1 chip, 100 μM glucose): 10.2 ± 2.8/ RU
SPR Signal at Saturating Amounts of Glucose [1, 4]: 17.7 ± 0.5/ RU
SPR Signal at Saturating Amounts of Glucose ([1]; thiol coupling, CM5 chip, denatured surface (neg control), 100 μM glucose): 0 ± 4.1/ RU
SPR Signal at Saturating Amounts of Glucose ([1]; thiol coupling, CM5 chip, refolded protein surface, 100 μM glucose): 11.4 ± 1.0/ RU
glucose signal after denaturation (FIG. 3) ([1]; thiol-coupled surface, 1 M guanidine HCl overnight, HBS-EP injections): did not result in glucose signals
glucose signal after renaturation (FIG. 3) ([1]; thiol-coupled surface, HBS-P and 1.5 mM CaCl2, continuous flow overnight): Glucose signals were restored

A213C GGBP H6: GGBP with cysteine substituted for alanine at position 213, histidine tag
glucose detection by SPR using thiol-coupled mutants (FIG. 8) [1]: signal-enhanced glucose detection
SPR Signal, Buffer ([1]; thiol coupling, CM5 chip): −0.5 ± 0.4 RU
SPR Signal at Saturating Amounts of Glucose ([1]; thiol coupling, CM5 chip, 1 mM glucose): 119 ± 0.4/ RU

G74C GGBP H6: GGBP with cysteine substituted for glycine at position 74, histidine tag
glucose detection by SPR using thiol-coupled mutants (FIG. 8) [1]: signal-enhanced glucose detection
SPR Signal, Buffer ([1]; thiol coupling, CM5 chip): 2.7 ± 3.6 RU
SPR Signal at Saturating Amounts of Glucose [1, 4]: 22.3 ± 0.2/ RU

K137C GGBP H6: GGBP with cysteine substituted for lysine at position 137, histidine tag
SPR Signal, Buffer ([1]; thiol coupling, CM5 chip): 4.8 ± 3.2 RU
SPR Signal at Saturating Amounts of Glucose [1, 4]: 9.5 ± 4.2/ RU
